# Literature values in paper PMC8080777, “Discovery, optimization, and evaluation of non-bile acid FXR/TGR5 dual agonists” (Scientific Reports, 2021).
# Target: T1, TGR5 (Homo sapiens, UniProt Q8TDU6)
# T1 construct: host or cells: CHO cells
# T1 sequence (Q8TDU6 1-330): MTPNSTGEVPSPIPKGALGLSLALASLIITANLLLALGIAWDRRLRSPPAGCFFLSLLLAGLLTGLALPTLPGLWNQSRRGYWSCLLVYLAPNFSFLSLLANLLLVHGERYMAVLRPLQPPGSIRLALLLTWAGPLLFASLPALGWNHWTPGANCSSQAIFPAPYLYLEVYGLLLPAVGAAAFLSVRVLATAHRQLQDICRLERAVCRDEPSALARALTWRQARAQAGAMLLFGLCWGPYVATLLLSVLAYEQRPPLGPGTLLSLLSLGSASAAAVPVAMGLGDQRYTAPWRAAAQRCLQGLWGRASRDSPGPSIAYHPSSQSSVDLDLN
# Details: cited from earlier work
structure (smiles),measurement,value
"COC(=O)/C=C/c1cccc(N(Cc2ccc(-c3ccc(N(C)C)cc3)cc2)C(=O)C2CCCCC2)c1 [Compound 7, Fexaramine, reference compound]",Reported TGR5 activity (in words),no significant agonist activity against TGR5
